{"source": "patent US9480259B2", "about": "“Pyrazolopyrans having herbicidal and pharmaceutical properties” (BASF SE, priority 2012, dated 2016)", "target": "Arabidopsis thaliana SHMT", "assay": "SHMT activity assay (ED50 SHMT), coupled with N5,N10-CH2-THF dehydrogenase, NADH at 340 nm", "assay_type": "biochemical", "conditions": "values given as upper bounds", "method_in_brief": "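His-tagged SHMT purified on Ni-NTA. NADH formation followed at 340 nm for 30 min; ED50 from inhibition of initial velocity.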", "key": {"[1]": {"conditions": "Arabidopsis thaliana SHMT enzyme assay"}}}
{"smiles": "Cc1n[nH]c2c1C(c1cc(C#N)cc(N(C)C(=O)CCCC(=O)O)c1)(C1CCC1)C(C#N)=C(N)O2", "note": "(stereo not shown) [Compound 2.636]", "values": [{"measurement": "EC50", "setting": "Table 2", "value": "< 10", "unit": "nM"}]}
{"smiles": "Cc1n[nH]c2c1C(c1ccc(CCc3nnn[nH]3)c(Cl)c1)(C1CCC1)C(C#N)=C(N)O2", "note": "(stereo not shown) [Compound 2.637]", "values": [{"measurement": "EC50", "setting": "Table 2", "value": "< 10", "unit": "nM"}]}
{"smiles": "Cc1n[nH]c2c1C(c1ccc(OCc3nnn[nH]3)c(Cl)c1)(C1CCC1)C(C#N)=C(N)O2", "note": "(stereo not shown) [Compound 2.638]", "values": [{"measurement": "EC50", "setting": "Table 2", "value": "< 10", "unit": "nM"}]}
{"smiles": "Cc1n[nH]c2c1C(c1ccc(Cc3nnn[nH]3)c(Cl)c1)(C1CCC1)C(C#N)=C(N)O2", "note": "(stereo not shown) [Compound 2.639]", "values": [{"measurement": "EC50", "setting": "Table 2", "value": "< 10", "unit": "nM"}]}
{"smiles": "Cc1n[nH]c2c1C(c1cc(C#N)cc(-c3ccc(C(=O)O)s3)c1)(C1CCC1)C(C#N)=C(N)O2", "note": "(stereo not shown) [Compound 2.640]", "values": [{"measurement": "EC50", "setting": "Table 2", "value": "< 10", "unit": "nM"}]}
{"smiles": "Cc1n[nH]c2c1C(c1cc(C#N)cc(-c3cc(OC(F)(F)F)cc(C(=O)O)c3)c1)(C1CCC1)C(C#N)=C(N)O2", "note": "(stereo not shown) [Compound 2.643]", "values": [{"measurement": "EC50", "setting": "Table 2", "value": "< 10", "unit": "nM"}]}
{"smiles": "Cc1n[nH]c2c1C(c1cc(C#N)cc(-c3cc(C(=O)O)cc(C(F)(F)F)c3)c1)(C1CCC1)C(C#N)=C(N)O2", "note": "(stereo not shown) [Compound 2.644]", "values": [{"measurement": "EC50", "setting": "Table 2", "value": "< 10", "unit": "nM"}]}
{"smiles": "Cc1n[nH]c2c1C(c1ccc(OCCC#N)c(Cl)c1)(C1CCC1)C(C#N)=C(N)O2", "note": "(stereo not shown) [Compound 2.645]", "values": [{"measurement": "EC50", "setting": "Table 2", "value": "< 10", "unit": "nM"}]}
{"smiles": "Cc1n[nH]c2c1C(c1ccc(OCCc3nnn[nH]3)c(Cl)c1)(C1CCC1)C(C#N)=C(N)O2", "note": "(stereo not shown) [Compound 2.646]", "values": [{"measurement": "EC50", "setting": "Table 2", "value": "< 10", "unit": "nM"}]}
{"smiles": "Cc1n[nH]c2c1C(c1ccc(CCC#N)c(C#N)c1)(C1CCC1)C(C#N)=C(N)O2", "note": "(stereo not shown) [Compound 2.647]", "values": [{"measurement": "EC50", "setting": "Table 2", "value": "< 10", "unit": "nM"}]}
{"smiles": "Cc1n[nH]c2c1C(c1cc(CNC(=O)CCC(=O)O)cc(C(F)(F)F)c1)(C1CCC1)C(C#N)=C(N)O2", "note": "(stereo not shown) [Compound 2.649]", "values": [{"measurement": "EC50", "setting": "Table 2", "value": "< 10", "unit": "nM"}]}
{"smiles": "Cc1n[nH]c2c1C(c1cc(C#N)cc(CCC#N)c1)(C1CCC1)C(C#N)=C(N)O2", "note": "(stereo not shown) [Compound 2.650]", "values": [{"measurement": "EC50", "setting": "Table 2", "value": "< 10", "unit": "nM"}]}
{"smiles": "Cc1n[nH]c2c1C(c1cc(Cl)cc(Cl)c1)(C(C)F)C(C#N)=C(N)O2", "note": "(stereo not shown) [Compound 2.651]", "values": [{"measurement": "EC50", "setting": "Table 2", "value": "< 10", "unit": "nM"}]}
{"smiles": "Cc1n[nH]c2c1C(c1cc(Cl)cc(Cl)c1)(C1CC(F)(F)C1)C(C#N)=C(N)O2", "note": "(stereo not shown) [Compound 2.652]", "values": [{"measurement": "EC50", "setting": "Table 2", "value": "< 10", "unit": "nM"}]}
{"smiles": "Cc1n[nH]c2c1C(c1cc(Cl)cc(Cl)c1)(C(C)(F)F)C(C#N)=C(N)O2", "note": "(stereo not shown) [Compound 2.653]", "values": [{"measurement": "EC50", "setting": "[1]", "value": "< 100", "unit": "nM"}]}
{"smiles": "Cc1n[nH]c2c1C(c1ccc(CCc3nnn[nH]3)c(-c3nnn[nH]3)c1)(C1CCC1)C(C#N)=C(N)O2", "note": "(stereo not shown) [Compound 2.654]", "values": [{"measurement": "EC50", "setting": "[1]", "value": "< 100", "unit": "nM"}]}
{"smiles": "Cc1n[nH]c2c1C(c1cc(CCc3nnn[nH]3)cc(-c3nnn[nH]3)c1)(C1CCC1)C(C#N)=C(N)O2", "note": "(stereo not shown) [Compound 2.655]", "values": [{"measurement": "EC50", "setting": "[1]", "value": "< 10000", "unit": "nM"}]}
{"smiles": "Cc1n[nH]c2c1C(c1cc(C#N)cc(-c3cccc(C(=O)O)c3)c1)(C1(F)COC1)C(C#N)=C(N)O2", "note": "(stereo not shown) [Compound 2.656]", "values": [{"measurement": "EC50", "setting": "[1]", "value": "< 10", "unit": "nM"}]}
{"smiles": "CCOC(=O)CCCN(C)c1cc(C#N)cc(C2(C3CCC3)C(C#N)=C(N)Oc3[nH]nc(C)c32)c1", "note": "(stereo not shown) [Compound 2.658]", "values": [{"measurement": "EC50", "setting": "[1]", "value": "< 10", "unit": "nM"}]}
{"smiles": "Cc1n[nH]c2c1C(c1cc(C#N)cc(N(C)C(=O)CCCC#N)c1)(C1CCC1)C(C#N)=C(N)O2", "note": "(stereo not shown) [Compound 2.659]", "values": [{"measurement": "EC50", "setting": "[1]", "value": "< 10", "unit": "nM"}]}
{"smiles": "Cc1n[nH]c2c1C(c1cc(C#N)cc(N(C)Cc3ccccc3)c1)(C1CCC1)C(C#N)=C(N)O2", "note": "(stereo not shown) [Compound 2.660]", "values": [{"measurement": "EC50", "setting": "[1]", "value": "< 10", "unit": "nM"}]}
{"smiles": "Cc1n[nH]c2c1C(c1cc(C#N)cc(N(C)C(=O)CCC#N)c1)(C1CCC1)C(C#N)=C(N)O2", "note": "(stereo not shown) [Compound 2.661]", "values": [{"measurement": "EC50", "setting": "[1]", "value": "< 10", "unit": "nM"}]}
{"smiles": "Cc1n[nH]c2c1C(c1cc(Cl)cc(SCC#N)c1)(C1CCC1)C(C#N)=C(N)O2", "note": "(stereo not shown) [Compound 2.665]", "values": [{"measurement": "EC50", "setting": "[1]", "value": "< 10", "unit": "nM"}]}
{"smiles": "COCCOCC(=O)N(C)c1cc(C#N)cc(C2(C(C)C)C(C#N)=C(N)Oc3[nH]nc(C)c32)c1", "note": "(stereo not shown) [Compound 2.666]", "values": [{"measurement": "EC50", "setting": "[1]", "value": "< 10", "unit": "nM"}]}
{"smiles": "Cc1n[nH]c2c1C(c1cc(Cl)cc(SCc3nnn[nH]3)c1)(C1CCC1)C(C#N)=C(N)O2", "note": "(stereo not shown) [Compound 2.667]", "values": [{"measurement": "EC50", "setting": "[1]", "value": "< 10", "unit": "nM"}]}
{"smiles": "Cc1n[nH]c2c1C(c1cc(-c3nnn[nH]3)cc(N(C)C(=O)CCC#N)c1)(C1CCC1)C(C#N)=C(N)O2", "note": "(stereo not shown) [Compound 2.668]", "values": [{"measurement": "EC50", "setting": "[1]", "value": "< 100", "unit": "nM"}]}
{"smiles": "Cc1n[nH]c2c1C(c1cc(C#N)cc(N(C)C(=O)c3ccc(C(=O)O)cc3)c1)(C(C)C)C(C#N)=C(N)O2", "note": "(stereo not shown) [Compound 2.669]", "values": [{"measurement": "EC50", "setting": "[1]", "value": "< 100", "unit": "nM"}]}
{"smiles": "Cc1n[nH]c2c1C(c1cc(Cl)cc(CCCC#N)c1)(C1CCC1)C(C#N)=C(N)O2", "note": "(stereo not shown) [Compound 2.670]", "values": [{"measurement": "EC50", "setting": "[1]", "value": "< 10", "unit": "nM"}]}
{"smiles": "Cc1n[nH]c2c1C(c1cc(C#N)cc(CCC#N)c1)(C(C)C)C(C#N)=C(N)O2", "note": "(stereo not shown) [Compound 2.671]", "values": [{"measurement": "EC50", "setting": "[1]", "value": "< 10", "unit": "nM"}]}
{"smiles": "Cc1n[nH]c2c1C(c1ccc(CC#N)c(C#N)c1)(C1CCC1)C(C#N)=C(N)O2", "note": "(stereo not shown) [Compound 2.672]", "values": [{"measurement": "EC50", "setting": "[1]", "value": "< 10", "unit": "nM"}]}
{"smiles": "Cc1n[nH]c2c1C(c1ccc(CCCC#N)c(Cl)c1)(C1CCC1)C(C#N)=C(N)O2", "note": "(stereo not shown) [Compound 2.673]", "values": [{"measurement": "EC50", "setting": "[1]", "value": "< 10", "unit": "nM"}]}
{"smiles": "Cc1n[nH]c2c1C(c1cc(Cl)cc(Cl)c1)(C1CC(F)C1)C(C#N)=C(N)O2", "note": "(stereo not shown) [Compound 2.674]", "values": [{"measurement": "EC50", "setting": "[1]", "value": "< 10", "unit": "nM"}]}
{"smiles": "COC(=O)c1ccc(-c2cc(C#N)cc(C3(C4(F)COC4)C(C#N)=C(N)Oc4[nH]nc(C)c43)c2)s1", "note": "(stereo not shown) [Compound 2.676]", "values": [{"measurement": "EC50", "setting": "[1]", "value": "< 100", "unit": "nM"}]}
{"smiles": "Cc1n[nH]c2c1C(c1cc(Cl)cc(CCCc3nnn[nH]3)c1)(C1CCC1)C(C#N)=C(N)O2", "note": "(stereo not shown) [Compound 2.677]", "values": [{"measurement": "EC50", "setting": "[1]", "value": "< 10", "unit": "nM"}]}
